The target in the experiment is T1, Human PD-L1/PD-1 (Homo sapiens, UniProt Q9NZQ7).
T1 construct: TVMV protease cleavage site (C); made in house; host or cells: HEK293T cells
Briefly: HTRF Human PD-L1/PD-1 binding assay (PD-1-Ig/PD-L1-His). As to conditions: PD-L1-His 10 nM, PD-1-Ig 20 nM; class symbol; read-out: HTRF Human PD-L1/PD-1 Binding Assay IC50 Range. An outline of the steps: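 Truncated Fc-fused human PD-1 (aa 25-167) at 20 nM and His-tagged PD-L1 (aa 18-239) at 10 nM final are used, with peptides preincubated 15 min with PD-L1. Detection uses europium-cryptate anti-Ig and APC anti-His antibodies; 665/620 nm ratio.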

pIC50: −log10 of the molar value. Where a SMILES comes first, the peptide text is derived from it. Bridges are numbered along the chain shown (N, C = ends). [ ]: non-standard residue; d: D form. ξ: configuration not given here. Bta = N[C@@H](Cc1csc2ccccc12)C(=O)O; Hyp = O=C(O)[C@@H]1C[C@@H](O)CN1; NMeF = CN[C@@H](Cc1ccccc1)C(=O)O; NMeNle = CCCC[C@H](NC)C(=O)O; hSer = N[C@@H](CCO)C(=O)O; NMeA = CN[C@@H](C)C(=O)O; ξC = NC(CS)C(=O)O; Sar = CNCC(=O)O

T1 sequence (Q9NZQ7 with tags, fused parts or gaps): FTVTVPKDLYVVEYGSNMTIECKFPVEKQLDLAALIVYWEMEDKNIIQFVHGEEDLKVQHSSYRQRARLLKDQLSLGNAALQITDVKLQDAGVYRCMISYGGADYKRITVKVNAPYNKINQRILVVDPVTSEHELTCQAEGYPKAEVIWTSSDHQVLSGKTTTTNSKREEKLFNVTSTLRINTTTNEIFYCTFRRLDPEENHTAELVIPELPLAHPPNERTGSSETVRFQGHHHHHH

Turning to `CCCC[C@H]1C(=O)N(C)[C@@H](CCCC)C(=O)N[C@@H](CCCNC(=N)N)C(=O)NC(C(=O)NCC(N)=O)CSCC(=O)N[C@@H](Cc2ccc(O)cc2)C(=O)N(C)[C@@H](C)C(=O)N[C@@H](CC(N)=O)C(=O)N2CCC[C@H]2C(=O)N[C@@H](CCO)C(=O)N[C@@H](CO)C(=O)N2CCC[C@H]2C(=O)N[C@@H](Cc2c[nH]c3ccccc23)C(=O)N[C@@H](CO)C(=O)N[C@@H](Cc2c[nH]c3ccccc23)C(=O)N1C` (some centres unmarked) [Example 10024] ({CH2CO}-Y[NMeA]NP[hSer]SPWSW[NMeNle][NMeNle]R[ξC]G-NH2; thioether N-14), the pIC50 was 7.00 to 8.00. With `CCCC[C@H]1C(=O)N(C)[C@@H](CCCC)C(=O)N[C@@H](CCCNC(=N)N)C(=O)NC(C(=O)NCC(N)=O)CSCC(=O)N[C@@H](Cc2ccc(O)cc2)C(=O)N(C)[C@@H](C)C(=O)N[C@@H](CC(N)=O)C(=O)N2CCC[C@H]2C(=O)N[C@@H](CO)C(=O)N[C@@H](CCO)C(=O)N2CCC[C@H]2C(=O)N[C@@H](Cc2c[nH]c3ccccc23)C(=O)N[C@@H](CO)C(=O)N[C@@H](Cc2csc3ccccc23)C(=O)N1C` (some centres unmarked) [Example 10025] ({CH2CO}-Y[NMeA]NPS[hSer]PWS[Bta][NMeNle][NMeNle]R[ξC]G-NH2; thioether N-14), the pIC50 was 8.00 to 9.00. The figure for `CCCC[C@H]1C(=O)N(C)[C@@H](CCCC)C(=O)N[C@@H](CCCNC(=N)N)C(=O)NC(C(=O)NCC(N)=O)CSCC(=O)N[C@@H](Cc2ccc(O)cc2)C(=O)N(C)[C@@H](C)C(=O)N[C@@H](CC(N)=O)C(=O)N2CCC[C@H]2C(=O)N[C@@H](CCO)C(=O)N[C@@H](CO)C(=O)N2CCC[C@H]2C(=O)N[C@@H](Cc2c[nH]c3ccccc23)C(=O)N[C@@H](CO)C(=O)N[C@@H](Cc2c[nH]c3ccccc23)C(=O)N1C` (some centres unmarked) [Example 10034] ({CH2CO}-Y[NMeA]NP[hSer]SPWSW[NMeNle][NMeNle]R[ξC]G-NH2; thioether N-14) is 8.00 to 9.00; for `CCCC[C@H]1C(=O)N(C)[C@@H](CCCC)C(=O)N[C@@H](CCCNC(=N)N)C(=O)NC(C(=O)NCC(N)=O)CSCC(=O)N[C@@H](Cc2ccc(O)cc2)C(=O)N(C)[C@@H](C)C(=O)N[C@@H](CC(N)=O)C(=O)N2CCC[C@H]2C(=O)N[C@@H](CO)C(=O)N[C@@H](CCO)C(=O)N2C[C@H](O)C[C@H]2C(=O)N[C@@H](Cc2c[nH]c3ccccc23)C(=O)N[C@@H](CO)C(=O)N[C@@H](Cc2csc3ccccc23)C(=O)N1C` (some centres unmarked) [Example 10035] ({CH2CO}-Y[NMeA]NPS[hSer][Hyp]WS[Bta][NMeNle][NMeNle]R[ξC]G-NH2; thioether N-14) it is 8.00 to 9.00. For the compound `CCCC[C@H]1C(=O)N(C)[C@@H](CCCC)C(=O)N[C@@H](CCCNC(=N)N)C(=O)NC(C(=O)NCC(N)=O)CSCC(=O)N[C@@H](Cc2ccc(O)cc2)C(=O)N(C)[C@@H](C)C(=O)N[C@@H](CC(N)=O)C(=O)N2CCC[C@H]2C(=O)N[C@@H](CO)C(=O)N[C@@H](CCO)C(=O)N2CCC[C@H]2C(=O)N[C@@H](Cc2c[nH]c3ccccc23)C(=O)N[C@@H](CO)C(=O)N[C@@H](Cc2c[nH]c3ccccc23)C(=O)N1C` (some centres unmarked) [Example 10036] ({CH2CO}-Y[NMeA]NPS[hSer]PWSW[NMeNle][NMeNle]R[ξC]G-NH2; thioether N-14), the pIC50 was 8.00 to 9.00. The figure for `CCCC[C@H]1C(=O)N(C)[C@@H](CCCC)C(=O)N[C@@H](CCCNC(=N)N)C(=O)NC(C(=O)NCC(N)=O)CSCC(=O)N[C@@H](Cc2ccc(O)cc2)C(=O)N(C)[C@@H](C)C(=O)N[C@@H](CC(N)=O)C(=O)N2CCC[C@H]2C(=O)N[C@@H](CC(N)=O)C(=O)N[C@@H](CC(N)=O)C(=O)N2CCC[C@H]2C(=O)N[C@@H](Cc2c[nH]c3ccccc23)C(=O)N[C@@H](CO)C(=O)N[C@@H](Cc2csc3ccccc23)C(=O)N1C` (some centres unmarked) [Example 10042] ({CH2CO}-Y[NMeA]NPNNPWS[Bta][NMeNle][NMeNle]R[ξC]G-NH2; thioether N-14) is 7.00 to 8.00; for `CCCC[C@H]1C(=O)N(C)[C@@H](CCCC)C(=O)N[C@@H](CCCNC(=N)N)C(=O)NC(C(=O)NCC(N)=O)CSCC(=O)N[C@@H](Cc2ccc(O)cc2)C(=O)N(C)[C@@H](C)C(=O)N[C@@H](CC(N)=O)C(=O)N2CCC[C@H]2C(=O)N[C@@H](CCO)C(=O)N[C@@H](CCO)C(=O)N2C[C@H](O)C[C@H]2C(=O)N[C@@H](Cc2c[nH]c3ccccc23)C(=O)N[C@@H](CO)C(=O)N[C@@H](Cc2c[nH]c3ccccc23)C(=O)N1C` (some centres unmarked) [Example 10043] ({CH2CO}-Y[NMeA]NP[hSer][hSer][Hyp]WSW[NMeNle][NMeNle]R[ξC]G-NH2; thioether N-14) it is 8.00 to 9.00; for `CCCC[C@H]1C(=O)N2CCC[C@@H]2C(=O)N[C@@H](CC(=O)O)C(=O)N[C@@H](C)C(=O)N(C)[C@@H](Cc2ccccc2)C(=O)N[C@@H](Cc2ccc(O)cc2)C(=O)N(C)CC(=O)N[C@@H](Cc2c[nH]c3ccccc23)C(=O)N[C@@H](Cc2ccc(O)cc2)C(=O)N[C@@H](CC(C)C)C(=O)N[C@H](C(=O)NCC(N)=O)CSCC(=O)N[C@@H](Cc2ccccc2)C(=O)N(C)[C@@H](Cc2ccccc2)C(=O)N1C` [Example 10044] ({CH2CO}-F[NMeF][NMeNle][dP]DA[NMeF]Y[Sar]WYLCG-NH2; thioether N-13) it is 7.00 to 8.00. `CCCC[C@H]1C(=O)N(C)[C@@H](CCCC)C(=O)N[C@@H](CCCNC(=N)N)C(=O)NC(C(=O)NCC(N)=O)CSCC(=O)N[C@@H](Cc2ccc(O)cc2)C(=O)N(C)[C@@H](C)C(=O)N[C@@H](CC(N)=O)C(=O)N2CCC[C@H]2C(=O)N[C@@H](Cc2cnc[nH]2)C(=O)N[C@@H](CC(C)C)C(=O)N2CCC[C@H]2C(=O)N[C@@H](Cc2c[nH]c3ccccc23)C(=O)N[C@@H](CO)C(=O)N[C@@H](Cc2csc3ccccc23)C(=O)N1C` (some centres unmarked) [Example 10045] ({CH2CO}-Y[NMeA]NPHLPWS[Bta][NMeNle][NMeNle]R[ξC]G-NH2; thioether N-14): the pIC50 was 7.00 to 8.00. In the case of `CCCC[C@H]1C(=O)N(C)[C@@H](CCCC)C(=O)N[C@@H](CCCNC(=N)N)C(=O)NC(C(=O)NCC(N)=O)CSCC(=O)N[C@@H](Cc2ccc(O)cc2)C(=O)N(C)[C@@H](C)C(=O)N[C@@H](CC(N)=O)C(=O)N2CCC[C@H]2C(=O)N[C@@H](CO)C(=O)N[C@@H](CCO)C(=O)N2CCC[C@H]2C(=O)N[C@@H](Cc2c[nH]c3ccccc23)C(=O)N[C@@H](CO)C(=O)N[C@@H](Cc2csc3ccccc23)C(=O)N1C` (some centres unmarked) [Example 10049] ({CH2CO}-Y[NMeA]NPS[hSer]PWS[Bta][NMeNle][NMeNle]R[ξC]G-NH2; thioether N-14), the pIC50 was 8.00 to 9.00.

Consider `CCCC[C@H]1C(=O)N(C)[C@@H](CCCC)C(=O)N[C@@H](CCCNC(=N)N)C(=O)NC(C(=O)NCC(N)=O)CSCC(=O)N[C@@H](Cc2ccc(O)cc2)C(=O)N(C)[C@@H](C)C(=O)N[C@@H](CC(N)=O)C(=O)N2CCC[C@H]2C(=O)N[C@@H](CO)C(=O)N[C@@H](CCO)C(=O)N2C[C@H](O)C[C@H]2C(=O)N[C@@H](Cc2c[nH]c3ccccc23)C(=O)N[C@@H](CCO)C(=O)N[C@@H](Cc2csc3ccccc23)C(=O)N1C` (some centres unmarked) [Example 10050] ({CH2CO}-Y[NMeA]NPS[hSer][Hyp]W[hSer][Bta][NMeNle][NMeNle]R[ξC]G-NH2; thioether N-14), for which the pIC50 was 8.00 to 9.00.

Source of the values: patent US10538555B2, “Macrocyclic inhibitors of the PD-1/PD-L1 and CD80(B7-1)/PD-L1 protein/protein interactions” (BRISTOL-MYERS SQUIBB COMPANY, priority 2014, dated 2020).
